From USRE48097E1, “Cephem compounds, their production and use” (priority 2015, dated 2020)
Values after ≈ are worked out from the molar mass of the structure shown. Where two headings read alike, the source gives them in different places. Values belong to the compound of their own block, whether it stands above or below them.

Legend:
[1] = test system: E. coli 2668; experiment: MIC against E. coli 2668; assay type: cell-based; details: Table 2, E. coli 2668, OXA-48
Description: (§1) Without limitation, the present cephem compounds alone, or in combination with one or more β-lactamase inhibitors, may provide improved antibacterial efficacy, particularly in antibiotic-resistant bacterial strains. It is believed that the present compounds may be structurally different from known compounds and, as a result, may be more basic in nature. It is an advantage that the present compounds may extend the spectrum of effective bacterial compounds, particularly against previously-resistant bacteria (e.g. ESKAPE organisms), and/or gram negative bacteria, without significant side effects. In a preferred embodiment, the present cephem compound may comprise reference compound ceftazidime, which may be used alone, or in combination with one or more β-lactamase inhibitors, such as NXL-104. As shown, the foregoing composition was tested for minimum inhibitory concentration (MIC, μg/mL) against bacteria listed in Tables 2-3.

[2] = test system: S. pneumoniae 2389; experiment: MIC against S. pneumoniae 2389; assay type: cell-based; details: Table 2, S. pneumoniae 2389, Pen R
Description: as §1

[3] = test system: E. cloacae 552; experiment: MIC against E. cloacae 552; assay type: cell-based; details: Table 2, E. cloacae 552, Caz S, IMP S
Description: as §1

[4] = test system: S. pneumoniae ATCC 700673; experiment: MIC against S. pneumoniae ATCC 700673; assay type: cell-based; details: Table 2, S. pneumoniae ATCC 700673, Pen R
Description: as §1

[5] = test system: S. aureus3137; experiment: MIC against S. aureus3137; assay type: cell-based, S. aureus; details: Table 2, S. aureus3137, MSSA
Description: as §1

[6] = test system: S. aureus 3147; experiment: MIC against S. aureus 3147; assay type: cell-based; details: Table 2, S. aureus 3147, MSSA
Description: as §1

[7] = test system: K. pneumoniae 4088; experiment: MIC against K. pneumoniae 4088; assay type: cell-based; details: Table 3, K. pneumoniae 4088, KPC-3
Experimental: (§2) As shown, the foregoing composition was tested for minimum inhibitory concentration (MIC, μg/mL) against bacteria listed in Tables 2-3.

[8] = test system: E. cloacae 2710; experiment: MIC against E. cloacae 2710; assay type: cell-based; details: Table 3, E. cloacae 2710, KPC-3, VIM-1
Experimental: as §2

[9] = test system: K. pneumoniae 2690; experiment: MIC against K. pneumoniae 2690; assay type: cell-based; details: Table 3, K. pneumoniae 2690, KPC-2
Experimental: as §2

[10] = test system: S. pneumoniae 2405; experiment: MIC against S. pneumoniae 2405; assay type: cell-based; details: Table 2, S. pneumoniae 2405, Pen S
Description: as §1

[11] = test system: S. pneumoniae 2406; experiment: MIC against S. pneumoniae 2406; assay type: cell-based; details: Table 2, S. pneumoniae 2406, Pen S
Description: as §1

[12] = test system: P. aeruginosa 2686; experiment: MIC against P. aeruginosa 2686; assay type: cell-based; details: Table 3, P. aeruginosa 2686, KPC-2
Experimental: as §2

[13] = test system: C. freundii 15; experiment: MIC against C. freundii 15; assay type: cell-based; details: Table 2, C. freundii 15, Caz R, IMP S
Description: as §1

[14] = test system: K. baumanii 2579; experiment: MIC against K. baumanii 2579; assay type: cell-based; details: Table 2, K. baumanii 2579, OXA-25
Description: as §1

[15] = test system: E. cloacae 551; experiment: MIC against E. cloacae 551; assay type: cell-based; details: Table 2, E. cloacae 551, Caz R, IMP S
Description: as §1

[16] = test system: K. baumanii 4094; experiment: MIC against K. baumanii 4094; assay type: cell-based; details: Table 2, K. baumanii 4094, OXA-51
Description: as §1

[17] = test system: E. cloacae 2704; experiment: MIC against E. cloacae 2704; assay type: cell-based; details: Table 2, E. cloacae 2704, P99
Description: as §1

[18] = test system: S. pneumoniae 2493; experiment: MIC against S. pneumoniae 2493; assay type: cell-based; details: Table 2, S. pneumoniae 2493, Pen R
Description: as §1

[19] = test system: K. baumanii 4095; experiment: MIC against K. baumanii 4095; assay type: cell-based; details: Table 2, K. baumanii 4095, OXA-48
Description: as §1

[20] = test system: E. cloacae 2705; experiment: MIC against E. cloacae 2705; assay type: cell-based; details: Table 3, E. cloacae 2705, VIM-1, KPC-3type
Experimental: as §2

[21] = test system: P. aeruginosa 2573; experiment: MIC against P. aeruginosa 2573; assay type: cell-based; details: Table 2, P. aeruginosa 2573, OXA-10 (Class D)
Description: as §1

[22] = test system: S. pneumoniae ATCC 6301; experiment: MIC against S. pneumoniae ATCC 6301; assay type: cell-based; details: Table 2, S. pneumoniae ATCC 6301, Pen S
Description: as §1

[23] = test system: E. coli 2666; experiment: MIC against E. coli 2666; assay type: cell-based; details: Table 3, E. coli 2666, KPC-2
Experimental: as §2

[24] = test system: S. aureus 3132; experiment: MIC against S. aureus 3132; assay type: cell-based; details: Table 2, S. aureus 3132, MSSA
Description: as §1

[25] = Escherichia coli, alone, read-out: MIC
[26] = Streptococcus pneumoniae, alone, read-out: MIC
[27] = Enterobacter cloacae, alone, read-out: MIC
[28] = Streptococcus pneumoniae, ATCC700673, alone, read-out: MIC
[29] = Staphylococcus aureus, alone, read-out: MIC
[30] = Klebsiella pneumoniae, alone, read-out: MIC
[31] = Pseudomonas aeruginosa, alone, read-out: MIC
[32] = Citrobacter freundii, alone, read-out: MIC
[33] = Streptococcus pneumoniae, ATCC6301, alone, read-out: MIC

- MIC [1, 25]: 1 µg/mL
- MIC [2, 26]: 4 µg/mL
- MIC [3, 27]: 0.12 µg/mL
- MIC [4, 28]: 2 µg/mL
- MIC [5, 29]: 8 µg/mL
- MIC [6, 29]: 2 µg/mL
- MIC [7, 30]: > 32 µg/mL
- MIC [8, 27]: > 32 µg/mL
- MIC [9, 30]: 32 µg/mL (≈ 44.6 µM)
- MIC [10, 26]: ≤ 0.06 µg/mL
- MIC [11, 26]: ≤ 0.06 µg/mL
- MIC [12, 31]: > 32 µg/mL
- MIC [13, 32]: 16 µg/mL
- MIC ([14]; alone, read-out: MIC): 32 µg/mL
- MIC [15, 27]: 32 µg/mL
- MIC ([16]; alone, read-out: MIC): 16 µg/mL
- MIC [17, 27]: 16 µg/mL
- MIC [18, 26]: 4 µg/mL
- MIC ([19]; alone, read-out: MIC): 0.5 µg/mL
- MIC [20, 27]: > 32 µg/mL
- MIC [21, 31]: 4 µg/mL
- MIC [22, 33]: ≤ 0.06 µg/mL
- MIC [23, 25]: 32 µg/mL (≈ 44.6 µM)
SMILES: CC(C)(O/N=C(\C(=O)N[C@@H]1C(=O)N2C(C(=O)[O-])=C(C[n+]3ccc4c(ccn4Cc4ccc(C(=N)N)cc4)c3)CS[C@H]12)c1csc(N)n1)C(=O)O [Ex-1, (6R,7R)-7-{[(2Z)-2-(2-Amino-1,3-thiazol-4-yl)-2-{[(2-carboxypropan-2-yl)oxy]imino}acetyl]-amino}-3-{[1-(4-carbamimidoylbenzyl)-1H-pyrrolo[3,2-c]pyridin-5-ium-5-yl]methyl}-8-oxo-5-thia-1-azabicyclo[4.2.0]oct-2-ene-2-carboxylate]

- MIC [1, 25]: 1 µg/mL
- MIC ([1]; in combination with NXL-104): ≤0.06 µg/mL
- MIC [2, 26]: 2 µg/mL
- MIC ([2]; in combination with NXL-104): 1.00 µg/mL
- MIC [3, 27]: 0.12 µg/mL
- MIC ([3]; in combination with NXL-104): ≤0.06 µg/mL
- MIC [4, 28]: 2 µg/mL
- MIC ([4]; in combination with NXL-104): 2.00 µg/mL
- MIC [5, 29]: 32 µg/mL
- MIC ([5]; in combination with NXL-104): 4.00 µg/mL
- MIC [6, 29]: 2 µg/mL
- MIC ([6]; in combination with NXL-104): 2.00 µg/mL
- MIC [7, 30]: 32 µg/mL (≈ 44.2 µM)
- MIC ([7]; in combination with NXL-104): 2 µg/mL
- MIC [8, 27]: > 32 µg/mL
- MIC ([8]; in combination with NXL-104): >32 µg/mL
- MIC [9, 30]: 8 µg/mL (≈ 11.1 µM)
- MIC ([9]; in combination with NXL-104): .5 µg/mL
- MIC [10, 26]: ≤ 0.06 µg/mL
- MIC ([10]; in combination with NXL-104): ≤0.06 µg/mL
- MIC [11, 26]: ≤ 0.06 µg/mL
- MIC ([11]; in combination with NXL-104): ≤0.06 µg/mL
- MIC [12, 31]: 32 µg/mL (≈ 44.2 µM)
- MIC ([12]; in combination with NXL-104): 8 µg/mL
- MIC [24, 29]: 2 µg/mL
- MIC ([24]; in combination with NXL-104): 2.00 µg/mL
- MIC [13, 32]: 16 µg/mL
- MIC ([13]; in combination with NXL-104): 0.50 µg/mL
- MIC ([14]; alone, read-out: MIC): > 32 µg/mL
- MIC ([14]; in combination with NXL-104): 8.00 µg/mL
- MIC [15, 27]: 32 µg/mL
- MIC ([15]; in combination with NXL-104): 1.00 µg/mL
- MIC ([16]; alone, read-out: MIC): 16 µg/mL
- MIC ([16]; in combination with NXL-104): 4.00 µg/mL
- MIC [17, 27]: 16 µg/mL
- MIC ([17]; in combination with NXL-104): 2.00 µg/mL
- MIC [18, 26]: 2 µg/mL
- MIC ([18]; in combination with NXL-104): 2.00 µg/mL
- MIC ([19]; alone, read-out: MIC): 0.25 µg/mL
- MIC ([19]; in combination with NXL-104): 0.25 µg/mL
- MIC [20, 27]: > 32 µg/mL
- MIC ([20]; in combination with NXL-104): >32 µg/mL
- MIC [21, 31]: 4 µg/mL
- MIC ([21]; in combination with NXL-104): 4.00 µg/mL
- MIC [22, 33]: ≤ 0.06 µg/mL
- MIC ([22]; in combination with NXL-104): ≤0.06 µg/mL
- MIC [23, 25]: 16 µg/mL (≈ 22.1 µM)
- MIC ([23]; in combination with NXL-104): 1 µg/mL
SMILES: CC(C)(O/N=C(\C(=O)N[C@@H]1C(=O)N2C(C(=O)[O-])=C(C[n+]3ccc4c(ccn4Cc4cc(C(=N)N)cs4)c3)CS[C@H]12)c1csc(N)n1)C(=O)O [Example 5, (6R,7R)-7-{[(2Z)-2-(2-Amino-1,3-thiazol-4-yl)-2-{[(2-carboxypropan-2-yl)oxy]imino}acetyl]amino}-3-({1-[(4-carbamimidoylthiophen-2-yl)methyl]-1H-pyrrolo[3,2-c]pyridin-5-ium-5-yl}methyl)-8-oxo-5-thia-1-azabicyclo[4.2.0]oct-2-ene-2-carboxylate]
